According to patent publication US12187742B2 (XRAD Therapeutics, Inc., priority 2018, dated 2025):
Counter-ions that a name gives are not always drawn.

What follows are compounds tested against ATM (Homo sapiens (Human), UniProt Q13315) (assay: ATM in Cell Western Assay (pKAP1 in etoposide-treated MCF-7 cells)). Conditions: MCF-7 cells, etoposide 100 μM, 1 hr, pKAP1 readout.
Format: cell-based
Method in brief: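 Cells received compounds in a 10-dose, 3-fold series from a 1 μM final top concentration, then 100 μM etoposide, for 1 hr at 37° C. They were then fixed with paraformaldehyde and permeabilized with 0.1% Triton X-100. After immunostaining, plates were scanned on an infrared imager.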

Chain of ATM (Q13315 whole entry): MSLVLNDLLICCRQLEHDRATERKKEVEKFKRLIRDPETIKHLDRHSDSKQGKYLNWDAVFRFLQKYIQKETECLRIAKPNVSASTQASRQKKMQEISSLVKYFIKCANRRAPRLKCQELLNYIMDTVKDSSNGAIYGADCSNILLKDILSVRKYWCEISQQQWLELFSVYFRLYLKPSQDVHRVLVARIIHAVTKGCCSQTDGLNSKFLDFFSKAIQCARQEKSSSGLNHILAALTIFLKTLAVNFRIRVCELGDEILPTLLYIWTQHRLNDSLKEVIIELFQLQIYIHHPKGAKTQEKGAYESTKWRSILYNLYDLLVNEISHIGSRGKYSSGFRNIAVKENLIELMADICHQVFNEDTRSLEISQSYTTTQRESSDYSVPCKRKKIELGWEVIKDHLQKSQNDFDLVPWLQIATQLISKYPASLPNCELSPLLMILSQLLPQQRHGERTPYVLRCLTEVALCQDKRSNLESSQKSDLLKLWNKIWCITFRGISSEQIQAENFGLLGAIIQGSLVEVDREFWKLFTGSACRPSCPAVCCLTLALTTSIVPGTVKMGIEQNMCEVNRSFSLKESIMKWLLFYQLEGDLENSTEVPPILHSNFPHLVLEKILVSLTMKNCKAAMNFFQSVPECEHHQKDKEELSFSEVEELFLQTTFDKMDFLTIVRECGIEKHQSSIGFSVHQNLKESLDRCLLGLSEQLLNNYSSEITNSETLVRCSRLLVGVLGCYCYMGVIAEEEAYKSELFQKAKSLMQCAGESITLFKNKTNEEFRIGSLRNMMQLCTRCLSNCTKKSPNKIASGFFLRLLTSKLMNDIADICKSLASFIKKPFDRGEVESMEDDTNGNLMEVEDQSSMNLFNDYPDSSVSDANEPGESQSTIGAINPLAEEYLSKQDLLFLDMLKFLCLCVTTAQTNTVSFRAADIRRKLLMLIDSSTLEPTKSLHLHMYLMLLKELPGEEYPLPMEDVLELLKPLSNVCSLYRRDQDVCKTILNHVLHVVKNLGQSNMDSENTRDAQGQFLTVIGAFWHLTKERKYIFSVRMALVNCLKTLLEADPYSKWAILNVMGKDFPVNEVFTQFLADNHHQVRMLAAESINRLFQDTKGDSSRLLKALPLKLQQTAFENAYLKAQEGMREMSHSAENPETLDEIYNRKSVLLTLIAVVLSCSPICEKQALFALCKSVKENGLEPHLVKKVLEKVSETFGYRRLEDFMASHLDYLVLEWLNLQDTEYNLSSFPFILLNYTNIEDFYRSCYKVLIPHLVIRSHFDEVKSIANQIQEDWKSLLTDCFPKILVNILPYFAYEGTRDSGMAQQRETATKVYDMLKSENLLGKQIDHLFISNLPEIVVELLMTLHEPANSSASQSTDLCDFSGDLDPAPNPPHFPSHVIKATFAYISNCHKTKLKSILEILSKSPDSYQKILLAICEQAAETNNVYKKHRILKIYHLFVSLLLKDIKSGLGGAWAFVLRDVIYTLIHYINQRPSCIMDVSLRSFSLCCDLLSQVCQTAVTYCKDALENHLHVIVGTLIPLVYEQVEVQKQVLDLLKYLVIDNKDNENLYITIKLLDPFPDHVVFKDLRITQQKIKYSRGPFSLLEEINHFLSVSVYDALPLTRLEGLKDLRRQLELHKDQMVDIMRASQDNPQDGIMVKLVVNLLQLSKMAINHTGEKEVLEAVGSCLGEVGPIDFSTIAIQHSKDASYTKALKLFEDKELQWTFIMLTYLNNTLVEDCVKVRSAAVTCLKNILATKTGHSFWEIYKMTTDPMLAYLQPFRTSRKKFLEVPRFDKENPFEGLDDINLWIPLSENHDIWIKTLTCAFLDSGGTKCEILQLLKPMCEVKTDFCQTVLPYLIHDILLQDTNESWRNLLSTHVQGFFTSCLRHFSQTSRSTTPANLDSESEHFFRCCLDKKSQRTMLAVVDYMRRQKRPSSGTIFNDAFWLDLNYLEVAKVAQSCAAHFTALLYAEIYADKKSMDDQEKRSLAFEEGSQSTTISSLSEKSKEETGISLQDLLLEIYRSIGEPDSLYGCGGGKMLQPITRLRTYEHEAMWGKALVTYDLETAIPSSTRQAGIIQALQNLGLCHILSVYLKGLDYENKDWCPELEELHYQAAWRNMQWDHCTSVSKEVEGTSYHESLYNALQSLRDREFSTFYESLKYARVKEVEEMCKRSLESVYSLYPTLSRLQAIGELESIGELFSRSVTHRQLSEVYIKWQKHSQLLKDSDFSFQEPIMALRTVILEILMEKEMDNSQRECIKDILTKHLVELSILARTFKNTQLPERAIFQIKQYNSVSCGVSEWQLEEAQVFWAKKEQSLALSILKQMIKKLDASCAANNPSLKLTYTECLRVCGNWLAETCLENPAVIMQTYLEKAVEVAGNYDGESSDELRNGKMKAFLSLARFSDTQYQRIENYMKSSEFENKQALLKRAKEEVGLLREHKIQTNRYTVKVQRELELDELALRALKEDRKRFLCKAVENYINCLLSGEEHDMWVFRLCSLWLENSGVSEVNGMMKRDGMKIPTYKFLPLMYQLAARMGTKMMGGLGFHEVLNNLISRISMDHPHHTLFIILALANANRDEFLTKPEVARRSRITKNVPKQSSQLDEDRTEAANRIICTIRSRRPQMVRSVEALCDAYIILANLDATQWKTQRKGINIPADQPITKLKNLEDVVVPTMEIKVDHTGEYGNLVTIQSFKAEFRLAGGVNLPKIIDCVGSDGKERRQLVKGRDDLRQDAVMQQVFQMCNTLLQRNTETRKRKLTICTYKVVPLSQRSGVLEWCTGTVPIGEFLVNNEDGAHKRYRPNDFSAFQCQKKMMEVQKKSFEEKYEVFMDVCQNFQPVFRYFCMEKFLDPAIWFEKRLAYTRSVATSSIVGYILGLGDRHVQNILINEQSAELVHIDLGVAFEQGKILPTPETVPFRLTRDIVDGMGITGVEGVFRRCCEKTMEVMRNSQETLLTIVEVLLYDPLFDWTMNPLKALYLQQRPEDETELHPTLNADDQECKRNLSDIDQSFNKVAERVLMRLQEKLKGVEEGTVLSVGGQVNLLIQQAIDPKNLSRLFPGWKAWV

Structure (SMILES)	IC50 [nM]
CN1C(=O)C2(CCC2)c2c1cnc1ccc(-c3cnc(OCC(F)(F)CN4CCCCC4)c(NS(C)(=O)=O)c3)cc21 [Example 256, N-(2-(2,2-Difluoro-3-(piperidin-1-yl)propoxy)-5-(3′-methyl-2′-oxo-2′,3′-dihydrospiro[cyclobutane-1,1′-pyrrolo[2,3-c]quinolin]-8′-yl)pyridin-3-yl)methanesulfonamide]	> 100
CN(C)CCCOc1ncc(-c2ccc3ncc4c(c3c2)C2(CCC2)C(=O)N4C)cc1NS(=O)(=O)CCN1C(=O)c2ccccc2C1=O [Example 261, N-(2-(3-(dimethylamino)propoxy)-5-(3′-methyl-2′-oxo-2′,3′-dihydrospiro[cyclobutane-1,1′-pyrrolo[2,3-c]quinolin]-8′-yl)pyridin-3-yl)-2-(1,3-dioxoisoindolin-2-yl)ethane-1-sulfonamide]	1 to 100
Cc1ccc(S(=O)(=O)Nc2cc(-c3ccc4ncc5c(c4c3)C3(CCC3)C(=O)N5C)cnc2OCCCN2C(C)CCCC2C)cn1 (stereo not shown) [Example 210, N-(2-(3-(2,6-Dimethylpiperidin-1-yl)propoxy)-5-(3′-methyl-2′-oxo-2′,3′-dihydrospiro[cyclobutane-1,1′-pyrrolo[2,3-c]quinolin]-8′-yl)pyridin-3-yl)-6-methylpyridine-3-sulfonamide]	1 to 100
CN(C)CCCNc1ncc(-c2ccc3ncc4c(c3c2)C2(CCC2)C(=O)N4C)cc1NS(C)(=O)=O [Example 259, N-(2-((3-(Dimethylamino)propyl)amino)-5-(3′-methyl-2′-oxo-2′,3′-dihydrospiro[cyclobutane-1,1′-pyrrolo[2,3-c]quinolin]-8′-yl)pyridin-3-yl)methanesulfonamide]	1 to 100
Cc1cc2ncc3c(c2cc1-c1cnc(N2CC(N(C)C)C2)c(NS(C)(=O)=O)c1)C1(CCC1)C(=O)N3C [Example 335, N-(5-(3′-,7′-Dimethyl-2′-oxo-2′,3′-dihydrospiro[cyclobutane-1,1′-pyrrolo[2,3-c]quinolin]-8′-yl)-2-(3-(dimethylamino)azetidin-1-yl)pyridin-3-yl)methanesulfonamide]	1 to 100
CN1C(=O)C2(CC2)c2c1cnc1ccc(-c3cnc(OCCCN4CCCC4)c(NS(=O)(=O)C4CC4)c3)cc21 [Example 60, N-(5-(3-Methyl-2′-oxo-2′,3′-dihydrospiro [cyclopropane-1,1′-pyrrolo[2,3-c]quinolin]-8′-yl)-2-(3-(pyrrolidin-1-yl)propoxy)pyridin-3-yl) cyclopropanesulfonamide]	1 to 100
CN1C(=O)C2(CCC2)c2c1cnc1ccc(-c3cnc(N4CCS(=O)(=O)CC4)c(NS(=O)(=O)c4ccccc4)c3)cc21 [Example 135, N-(2-(1,1-Dioxidothiomorpholino)-5-(3′-methyl-2′-oxo-2′,3′-dihydrospiro[cyclobulane-1,1′-pyrrolo[2,3-c]quinolin]-8′-yl)pyridin-3-yl)benzenesulfonamide hydrochloride]	> 100
CN(C)CCCOc1ncc(-c2ccc3ncc4c(c3c2)C2(CCC2)C(=O)N4C)cc1NS(=O)(=O)c1cc[nH]c(=O)c1 [Example 161, N-(2-(3-(Dimethylamino)propoxy)-5-(3′-methyl-2′-oxo-2′,3′-dihydrospiro[cyclobulane-1,1′-pyrrolo[2,3-c]quinolin]-8′-yl)pyridin-3-yl)-2-oxo-1,2-dihydropyridine-4-sulfonamide]	1 to 100
CN1C(=O)C2(CC2)c2c1cnc1ccc(-c3ccc4[nH]c(=O)ccc4c3)cc21 [Example 40]	> 100
CN(C)CCCOc1ncc(-c2ccc3ncc4c(c3c2)N(C)C2(CC2)C(=O)N4)cc1NS(=O)(=O)c1ccccc1 [Example 87, N-(2-(3-(Dimethylamino)propoxy)-5-(1′-methyl-3′-oxo-3′-,4′-dihydro-1′H-spiro[cyclopropane-1,2′-pyrazino[2,3-c]quinolin]-9′-yl)pyridin-3-yl) benzenesulfonamide]	> 100
CN1C(=O)C2(CC2)c2c1cnc1ccc(-c3ccc4c(ccc(=O)n4C)c3)cc21 [Example 45, 3′-Methyl-8′-(1-methyl-2-oxo-1,2-dihydroquinolin-6-yl)spiro[cyclopropane-1,1′-pyrrolo[2,3-c]quinolin]-2′(3′-H)-one]	> 100
CN1C(=O)C2(CCC2)c2c1cnc1cc(F)c(-c3cnc(N4CC(N(C)C)C4)c(NS(=O)(=O)N4CCOCC4)c3)cc21 [Example 312, N-(2-(3-(Dimethylamino)azetidin-1-yl)-5-(7′-fluoro-3′-methyl-2′-oxo-2′,3′-dihydrospiro[cyclobutane-1,1′-pyrrolo[2,3-c]quinolin]-8′-yl)pyridin-3-yl)morpholine-4-sulfonamide hydrochloride]	1 to 100

Same assay, conditions: pKAP1 in etoposide-treated MCF-7 cells

Structure (SMILES)	IC50 [nM]
CC(C)NCCOc1ncc(-c2cc3c4c(cnc3cc2F)N(C)C(=O)C42CCC2)cc1NS(=O)(=O)N1CC(C#N)C1 [Example 372, 3-Cyano-N-(5-(7′-fluoro-3′-methyl-2′-oxo-2′,3′-dihydrospiro[cyclobutane-1,1′-pyrrolo[2,3-c]quinolin]-8′-yl)-2-(2-(isopropylamino)ethoxy)pyridin-3-yl)azetidine-1-sulfonamide]	> 100
CCO[C@H]1C[C@@]2(C1)C(=O)N(C)c1cnc3cc(F)c(-c4cnc(OCCNC(C)C)c(NS(C)(=O)=O)c4)cc3c12 [Example 394, trans-N-(5-(3-Ethoxy-7′-fluoro-3′-methyl-2′-oxo-2′,3′-dihydrospiro[cyclobutane-1,1′-pyrrolo[2,3-c]quinolin]-8′-yl)-2-(2-(isopropylamino)ethoxy)pyridin-3-yl)methanesulfonamide]	1 to 100
CN1C(=O)C2(CCC2)c2c1cnc1cc(F)c(-c3cnc(OCCNCCF)c(NS(C)(=O)=O)c3)cc21 [Example 380, N-(5-(7′-Fluoro-3′-methyl-2′-oxo-2′,3′-dihydrospiro [cyclobutane-1,1′-pyrrolo[2.3-c]quinolin]-8′-yl)-2-(2-((2-fluoroethyl)amino)ethoxy)pyridin-3-yl) methanesulfonamide hydrochloride]	1 to 100
CC(C)NCCOc1ncc(-c2cc3c(cc2F)ncc2c3[C@]3(C[C@@H](Oc4ccccc4)C3)C(=O)N2C)cc1NS(C)(=O)=O [Example 401, trans-N-(5-(7′-Fluoro-3′-methyl-2′-oxo-3-phenoxy-2′,3′-dihydrospiro[cyclobutane-1,1′-pyrrolo[2,3-c]quinolin]-8′-yl)-2-(2-(isopropylamino)ethoxy)pyridin-3-yl)methanesulfonamide]	1 to 100
CN1C(=O)C2(CN(CC(F)(F)F)C2)c2c1cnc1ccc(-c3cnc(N4CC(N(C)C)C4)c(NS(C)(=O)=O)c3)cc21 [Example 480]	1 to 100
CC(C)NCCOc1ncc(-c2cc3c(cc2F)ncc2c3[C@]3(C[C@@H](Nc4ccc(Cl)cc4)C3)C(=O)N2C)cc1NS(C)(=O)=O [Example 462, trans-N-(5-(3-((4-Chlorophenyl)amino)-7′-fluoro-3′-methyl-2′-oxo-2′,3′-dihydrospiro[cyclobutane-1,1′-pyrrolo[2,3-c]quinolin]-8′-yl)-2-(2-(isopropylamino)ethoxy)pyridin-3-yl)methanesulfonamide]	1 to 100
CC(C)NCCOc1ncc(-c2cc3c(cc2F)ncc2c3[C@]3(C[C@H](c4ccc(=O)[nH]c4)C3)C(=O)N2C)cc1NS(C)(=O)=O [Example 442, cis-N-(5-(7′-Fluoro-3′-methyl-2′-oxo-3-(6-oxo-1,6-dihydropyridin-3-yl)-2′,3′-dihydrospiro[cyclobutane-1,1′-pyrrolo[2,3-c]quinolin]-8′-yl)-2-(2-(isopropylamino)ethoxy)pyridin-3-yl)methanesulfonamide]	> 100
COCCN[C@H]1C[C@@]2(C1)C(=O)N(C)c1cnc3cc(F)c(-c4cnc(OCCNC(C)C)c(NS(C)(=O)=O)c4)cc3c12 [Example 474, trans-N-{5-(7′-Fluoro-3-((2-methoxyethyl)amino)-3′-methyl-2′-oxo-2′,3′-dihydrospiro[cyclobutane-1,1′-pyrrolo[2,3-c]quinolin]-8′-yl)-2-(2-(isopropylamino)ethoxy)pyridin-3-yl)methanesulfonamide]	1 to 100
CN1C(=O)C2(CCC2)c2c1cnc1ccc(-c3cnc(N4CC5CC(C4)N5C(=O)OC(C)(C)C)c(NS(C)(=O)=O)c3)cc21 [Example 359, tert-Butyl 3-(5-(3′-methyl-2′-oxo-2′,3′-dihydrospiro [cyclobutane-1,1′-pyrrolo[2,3-c]quinolin]-8′-yl)-3-(methylsulfonamido)pyridin-2-yl)-3,6-diazabicydo[3.1.1] heptane-6-carboxylate]	> 100
CC(C)NCCOc1ncc(-c2cc3c(cc2F)ncc2c3[C@]3(C[C@H](n4cccn4)C3)C(=O)N2C)cc1NS(C)(=O)=O [Example 476, cis-N-(5-(7′-Fluoro-3′-methyl-2′-oxo-3-(1H-pyrazol-1-yl)-2′,3′-dihydrospiro[cyclobutane-1,1′-pyrrolo[2,3-c]quinolin]-8′-yl)-2-(2-(isopropylamino)ethoxy)pyridin-3-yl)methanesulfonamide]	> 100
CO[C@H]1C[C@@]2(C1)C(=O)N(C)c1cnc3cc(F)c(-c4cnc(OCCNC(C)C)c(NS(C)(=O)=O)c4)cc3c12 [Example 386]	1 to 100
CN[C@H]1C[C@@]2(C1)C(=O)N(C)c1cnc3cc(F)c(-c4cnc(OCCNC(C)C)c(NS(C)(=O)=O)c4)cc3c12 [Example 473, trans-N-(5-(7′-Fluoro-3′-methyl-3-(methylamino)-2′-oxo-2′,3′-dihydrospiro[cyclobutane-1,1′-pyrrolo[2,3-c]quinolin]-8′-yl)-2-(2-(isopropylamino)ethoxy)pyridin-3-yl)methanesulfonamide]	1 to 100
CC(C)NCCOc1ncc(-c2cc3c(cc2F)ncc2c3[C@]3(C[C@@H](C)C3)C(=O)N2C)cc1NS(C)(=O)=O [Example 447, trans-N-(5-(7′-Fluoro-3,3′-dimethyl-2′-oxo-2′,3′-dihydrospiro[cyclobutane-1,1′-pyrrolo[2,3-c]quinolin]-8′-yl)-2-(2-(isopropylamino)ethoxy)pyridin-3-yl)methanesulfonamide]	1 to 100
